In test [1] the test system is CoK-bearing α-tubulin in HeLa cells. Briefly: Protein labelling on live cells using CoK (α-tubulin), HeLa. The format is cell-based. Conditions: CoK-bearing α-tubulin versus wild type. How it is done: CHO-K1 or HeLa cells were grown in DMEM-low glucose 1 g l^−1 (Gibco) supplemented with 10% FBS (Gibco) in eight-well plate (ibid). At 70∼80% confluency, cells were transfected using 4 μl iN-fect in vitro transfection reagent with 100 ng pCoKRS-tRNA and 900 ng pTub-26TAG or with 900 ng pTubwt. After 6 h of incubation, media was replaced with fresh media (DMEM-low glucose medium with 10% FBS, 1% Pen-Strep, 2 Mm […]) containing 0.25 Mm CoK. After an additional 36 h, media was exchanged with normal growth media without CoK and cells were incubated for 2 h and washed (four times) to remove remaining CoK. Next, growth media containing 1 μM AzG-1 was added to the plates, and cells were incubated for 2 h with four times of washing (30 min each time) using growth media. High-resolution images of live cells were obtained using a Zeiss LSM510 META laser scanning confocal microscope.
Supplementary Figure 21 Fluorescence imaging of α-tubulin in live HeLa.
HeLa cells were co-transfected with plasmids pCoKRS-tRNA and pTub-26TAG or plasmid pTubwt followed by sequential treatment with CoK and AzG-1 as described above. Live cell […]
in HeLa cells. Scale bar, 10 μm.
(1 picture or pasted object on this page, not shown here)

The test system of test [2] is mitochondria in U-2 OS cells. Kind of test: Mitochondria labelling with AzG-1 in cells pre-treated with TPP-BCN. The format is cell-based, human. Conditions: U-2 OS cells pre-treated with TPP-BCN, 10 μM AzG-1, 2 h. How it is done:
(§1) Excited with the results, we further challenged the model and developed another ‘tame' azide-bearing probe, AzG-1, to label molecules in mitochondria and the fancy tubulin protein in living cells (Figs 4a,b). To target mitochondria, U-2 OS cells were pre-treated with TPP-BCN (an analogue of triphenylphosphonium) before labelled with 10 μM AzG-1. For tubulin labelling, a cyclooctyne-containing UAA, N-ɛ-(cyclooct-2-yn-1-yloxy)carbonyl)L-lysine (CoK) was selected for incorporating into tubulin and reacting with AzG-1 via SPAAC.[29] CHO-K1 cells were co-transfected with plasmids pCoKRS-tRNA and pTub-26TAG to incorporate CoK into α-tubulin at position 26. Site-specific incorporation of CoK using an orthogonal tRNA^Pyl/CoKRS pair was confirmed via western blot analysis (Supplementary Figs. 19 and 20). After incorporation of CoK, cells were then labelled with 10 μM AzG-1 at 37 °C. CHO-K1 cells transfected with plasmid pEGFP-Tubwt expressing EGFP-fused wild-type α-tubulin was used as a control. Confocal fluorescence images were then taken AW of unreacted AzG-1.
(§2) Figure 4 Live cell imaging with AzG-1 (a) Chemical structures of azide-bearing probe AzG-1 and its descriptor values. […] (c) Fluorescence imaging of mitochondria in U-2 OS cells labelled with AzG-1. […] (d) Fluorescence imaging of α-tubulin in live CHO-K1 cells. […]

Test [3] deals with CoK-bearing α-tubulin in CHO-K1 cells. Briefly: Protein labelling on live cells using CoK (α-tubulin), CHO-K1. The test is classed as cell-based. Conditions: CoK at position 26 of α-tubulin, 10 μM AzG-1, 2 h, 37 °C. How it is done: as §1, §2

Structures are written as SMILES.

For `CC1=CC(C)=[N+]2C1=C(CCC(=O)NCCN=[N+]=[N-])c1c(C)cc(C)n1[B-]2(F)F` [AzG-1], the “Labelling of α-tubulin” value in test [1] and in test [3] was “conjugated specifically with CoK-bearing α-tubulin” in each case. For the same molecule, the Labelling of mitochondria result in test [2] is listed as “specifically labelled mitochondria”.

The record behind these values is publication PMC4915154, “Development of background-free tame fluorescent probes for intracellular live cell imaging” (Nature Communications, 2016).
